In US20180099931A1 (AbbVie S.à.r.l., priority 2016, published 2018):
Where two headings read alike, the source gives them in different places.

Biological target: T1, F508delCFTR (Homo sapiens, UniProt P13569, DEL508-508)
T1 construct: expressed in transfected cells; host or cells: CFBE41o- human lung-derived epithelial cells (CFBE4lo-F508delCFTR-HRP), doxycycline-inducible
Assay: Cell Surface Expression-Horse Radish Peroxidase (CSE-HRP) Assay;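 as to Maximum % activity (with co-corrector): co-corrector and positive control are both the same reference corrector at 2 µM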;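 as to Maximum % activity (without co-corrector): percent of the 2 µM on-plate positive control corrector response above DMSO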
Type: cell-based
Conditions: for Emax: read-out: Maximum % activity (without co-corrector)

[1] = test compound without co-corrector, read-out: EC50 (without co-corrector)
[2] = with co-corrector (2 μM of 3-[(2R,4R)-4-({[1-(2,2-difluoro-1,3-benzodioxol-5-yl)cyclopropyl]carbonyl}amino)-7-methoxy-3,4-dihydro-2H-chromen-2-yl]benzoic acid), read-out: EC50 (with co-corrector)
[3] = with co-corrector (2 μM), maximum at any tested concentration, normalized to on-plate positive control
[4] = without co-corrector, maximum at any tested concentration, normalized to on-plate positive control
[5] = CSE-HRP, test compound without co-corrector, read-out: EC50 (without co-corrector)
[6] = CSE-HRP, with co-corrector (2 μM of 3-[(2R,4R)-4-({[1-(2,2-difluoro-1,3-benzodioxol-5-yl)cyclopropyl]carbonyl}amino)-7-methoxy-3,4-dihydro-2H-chromen-2-yl]benzoic acid), read-out: EC50 (with co-corrector)
[7] = CSE-HRP, with co-corrector (2 μM), maximum at any tested concentration, normalized to on-plate positive control
[8] = CSE-HRP, without co-corrector, maximum at any tested concentration, normalized to on-plate positive control
[9] = test compound without co-corrector, maximum at any tested concentration, normalized to on-plate positive control
[10] = with co-corrector (2 μM of 3-[(2R,4R)-4-({[1-(2,2-difluoro-1,3-benzodioxol-5-yl)cyclopropyl]carbonyl}amino)-7-methoxy-3,4-dihydro-2H-chromen-2-yl]benzoic acid), maximum at any tested concentration, normalized to on-plate positive control

T1 sequence (P13569 with tags, fused parts or gaps DEL508-508): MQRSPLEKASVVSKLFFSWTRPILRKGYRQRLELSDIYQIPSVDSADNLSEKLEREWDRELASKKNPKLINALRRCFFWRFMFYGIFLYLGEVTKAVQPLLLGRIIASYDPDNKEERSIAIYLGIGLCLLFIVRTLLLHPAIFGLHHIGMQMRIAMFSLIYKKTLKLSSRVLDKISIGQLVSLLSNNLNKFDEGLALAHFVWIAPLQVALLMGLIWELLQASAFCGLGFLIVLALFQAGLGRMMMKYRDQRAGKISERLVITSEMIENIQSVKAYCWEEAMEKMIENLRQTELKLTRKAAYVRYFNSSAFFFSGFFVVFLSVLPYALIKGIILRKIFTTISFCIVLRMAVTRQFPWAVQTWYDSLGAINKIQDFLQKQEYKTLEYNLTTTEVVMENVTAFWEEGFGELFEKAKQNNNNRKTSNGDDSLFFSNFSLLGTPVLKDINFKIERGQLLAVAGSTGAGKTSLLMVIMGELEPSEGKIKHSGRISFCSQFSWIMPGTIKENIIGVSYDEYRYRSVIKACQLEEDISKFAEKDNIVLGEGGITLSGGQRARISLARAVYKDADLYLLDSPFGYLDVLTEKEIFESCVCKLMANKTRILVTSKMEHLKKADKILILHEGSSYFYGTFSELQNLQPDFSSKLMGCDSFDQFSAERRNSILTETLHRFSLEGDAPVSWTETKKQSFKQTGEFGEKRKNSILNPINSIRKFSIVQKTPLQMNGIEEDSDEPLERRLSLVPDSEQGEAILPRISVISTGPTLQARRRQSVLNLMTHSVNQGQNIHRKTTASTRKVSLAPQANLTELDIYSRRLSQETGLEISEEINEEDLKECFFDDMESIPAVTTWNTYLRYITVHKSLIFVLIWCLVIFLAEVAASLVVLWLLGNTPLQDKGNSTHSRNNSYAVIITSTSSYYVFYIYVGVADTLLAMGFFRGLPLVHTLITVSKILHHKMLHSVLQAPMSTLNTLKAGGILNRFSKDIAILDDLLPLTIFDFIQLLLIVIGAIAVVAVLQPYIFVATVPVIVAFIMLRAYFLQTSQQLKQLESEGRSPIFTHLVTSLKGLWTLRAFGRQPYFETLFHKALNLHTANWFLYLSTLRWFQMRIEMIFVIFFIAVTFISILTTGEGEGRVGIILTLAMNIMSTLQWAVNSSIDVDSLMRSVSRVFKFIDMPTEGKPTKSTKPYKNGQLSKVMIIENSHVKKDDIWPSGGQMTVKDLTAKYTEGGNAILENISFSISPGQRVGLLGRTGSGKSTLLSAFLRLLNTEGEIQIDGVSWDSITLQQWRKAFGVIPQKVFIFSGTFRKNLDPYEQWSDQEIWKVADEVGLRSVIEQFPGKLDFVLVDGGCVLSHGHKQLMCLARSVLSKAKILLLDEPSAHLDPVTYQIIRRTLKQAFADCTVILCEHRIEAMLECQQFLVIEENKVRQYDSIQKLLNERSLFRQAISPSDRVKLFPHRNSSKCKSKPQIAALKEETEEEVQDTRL

Structure (SMILES)	EC50 [1] [nM]	EC50 [2] [nM]	Maximum % activity (with co-corrector) [3]	Emax [4] [%]	EC50 [5] [nM]	EC50 [6] [nM]	Maximum % activity (with co-corrector) [7]	Emax [8] [%]	Emax [9] [%]	Maximum % activity (with co-corrector) [10]	Maximum % activity (without co-corrector) [8]
Cc1cc(C(F)(F)F)cc(N[C@H]2[C@@H](c3ccccc3)N(C(=O)C3CCCCC3)[C@@H](C(=O)O)C23CC3)n1 (racemic) [Example I-17]	1000 to 10000	1000 to 10000	++ (≥150 and <350)	< 100	–	–	–	–	–	–	–
COc1ncc(C(F)(F)F)cc1CN[C@H]1[C@H](C(C)(C)C)[C@@H](C(=O)O)N(C(=O)[C@@H]2CCCO2)[C@H]1c1ccccc1C [Example I-262]	–	–	–	–	1000 to 10000	1000 to 10000	+++ (≥350)	> 200	–	–	–
COc1ccc(C(F)(F)F)cc1CN[C@H]1[C@H](C(C)(C)C)[C@@H](C(=O)O)N(C(=O)C2CCC(C)C2)[C@H]1c1ccccc1 (stereo partly shown) [III-198]	1000 to 10000	< 1000	+++ (≥350)	–	–	–	–	–	> 200	–	–
COc1ccc(C(C)(C)C)cc1CN[C@H]1[C@H](C(C)(C)C)[C@@H](C(=O)O)N(C(=O)[C@H]2C[C@H](CCC#N)C[C@H]2C)[C@H]1c1ccccc1 [II-173]	–	–	–	–	1000 to 10000	1000 to 10000	+++ (≥350)	> 200	–	–	–
COc1ccc(C(C)(C)C)cc1CN[C@H]1[C@H](C(C)(C)C)[C@@H](C(=O)O)N(C(=O)c2cccc3c2OCC3)[C@H]1c1ccccc1 [II-222]	–	–	–	–	1000 to 10000	< 1000	+++ (≥350)	100 to 200	–	–	–
COc1ncc(C(F)(F)F)cc1CN[C@H]1[C@H](C(C)(C)C)[C@@H](C(=O)O)N(C(=O)OC(C)C)[C@H]1c1cccnc1OC(C)C [Example 79, (2S,3S,4S,5S)-3-tert-butyl-4-({[2-methoxy-5-(trifluoromethyl)pyridin-3-yl]methyl}amino)-1-{[(propan-2-yl)oxy]carbonyl}-5-{2-[(propan-2-yl)oxy]pyridin-3-yl}pyrrolidine-2-carboxylic acid]	1000 to 10000	1000 to 10000	+++ (≥350)	> 200	–	–	–	–	–	–	–
COc1ccc(C(C)(C)C)cc1CN[C@H]1[C@H](C(C)(C)C)[C@@H](C(=O)O)N(C(=O)[C@H](C)Oc2ccccc2)[C@H]1c1ccccc1 [II-319]	1000 to 10000	< 1000	–	–	–	–	–	–	> 200	+++ (≥350)	–
CC(N[C@@H]1[C@@H](C(C)(C)C)[C@H](C(=O)O)N(C(=O)C2CCCCC2)[C@@H]1c1ccccc1)c1ccc2c(c1)OC(F)(F)O2 (mixture of isomers) [Example I-3]	> 10000	1000 to 10000	++ (≥150 and <350)	< 100	–	–	–	–	–	–	–
COc1ccc(C(C)(C)C)cc1CN[C@H]1[C@H](C(C)(C)C)[C@@H](C(=O)O)N(C(=O)c2ccc(OC3CCOCC3)cc2)[C@H]1c1cccnc1N(C)C [II-465]	1000 to 10000	< 1000	–	–	–	–	–	–	> 200	+++ (≥350)	–
COc1nc(C(C)(C)C)ccc1CN[C@H]1[C@H](C(C)(C)C)[C@@H](C(=O)O)N(C(=O)C2CCC(C)(C)C2)[C@H]1c1ccccc1 (stereo partly shown) [II-428]	1000 to 10000	1000 to 10000	–	–	–	–	–	–	100 to 200	+++ (≥350)	–
COc1ccc(C2(C)CCC2)cc1CN[C@H]1[C@H](C(C)(C)C)[C@@H](C(=O)O)N(C(=O)C2CCCCC2)[C@H]1c1cccnc1OC [Example I-238]	1000 to 10000	< 1000	+++ (≥350)	> 200	–	–	–	–	–	–	–
COc1ncc(C2CCC2)cc1CN[C@H]1[C@H](C(C)(C)C)[C@@H](C(=O)O)N(C(=O)[C@@H]2CCC[C@H](C(F)(F)F)C2)[C@H]1c1ccccc1 (relative stereo) [Example I-259]	–	–	–	–	1000 to 10000	1000 to 10000	+++ (≥350)	100 to 200	–	–	–
COc1nc(C(C)(C)C)ncc1CN[C@H]1[C@H](C(C)(C)C)[C@@H](C(=O)O)N(C(=O)C2CCCC(F)(F)C2)[C@H]1c1ccccc1 (relative stereo) [II-477]	< 1000	1000 to 10000	–	–	–	–	–	–	100 to 200	+++ (≥350)	–
COc1ccc(C(F)(F)F)cc1CN[C@H]1[C@H](C(C)(C)C)[C@@H](C(=O)O)N(C(=O)C2COc3ccccc3O2)[C@H]1c1ccccc1 (stereo partly shown) [II-156]	–	–	–	–	1000 to 10000	1000 to 10000	++ (≥150 and <350)	< 100	–	–	–
COc1ccc(C(C)(C)C)cc1CN[C@H]1[C@H](C(C)(C)OC)[C@@H](C(=O)O)N(C(=O)C2CCCCC2)[C@H]1c1cccnc1OC [Example 40, (2S,3S,4S,5S)-4-{[(5-tert-butyl-2-methoxyphenyl)methyl]amino}-1-(cyclohexanecarbonyl)-3-(2-methoxypropan-2-yl)-5-(2-methoxypyridin-3-yl)pyrrolidine-2-carboxylic acid]	1000 to 10000	1000 to 10000	+++ (≥350)	> 200	–	–	–	–	–	–	–
Cc1cc(C(F)(F)F)cc(N[C@@H]2[C@@H](C(C)(C)C)[C@H](C(=O)NS(=O)(=O)N(C)C)N(C(=O)C3CCCCC3)[C@@H]2c2ccccc2)n1 (racemic) [III-54]	1000 to 10000	1000 to 10000	–	–	–	–	–	–	< 100	++ (≥150 and <350)	–
COc1ccc(C(C)(C)C)cc1CN[C@H]1[C@H](C(C)(C)C)[C@@H](C(=O)O)N(C(=O)C2CC(F)C2)[C@H]1c1ccccc1 (stereo partly shown) [II-335]	1000 to 10000	1000 to 10000	–	–	–	–	–	–	> 200	+++ (≥350)	–
COc1ccc(-c2ccccc2)cc1CN[C@H]1[C@H](C(C)(C)C)[C@@H](C(=O)O)N(C(=O)[C@H]2CCCCO2)[C@H]1c1cccnc1N(C)C [II-447]	1000 to 10000	1000 to 10000	–	–	–	–	–	–	100 to 200	+++ (≥350)	–
CC(C)(C)[C@@H]1[C@@H](NCc2cc(F)ccc2S(C)(=O)=O)[C@@H](c2ccccc2)N(C(=O)C2CCCCC2)[C@H]1C(=O)O (racemic) [III-108]	> 10000	1000 to 10000	+ (<150)	–	–	–	–	–	< 100	–	–
COc1ccc(C(F)(F)F)cc1OCCN[C@H]1[C@H](C(C)(C)C)[C@@H](C(=O)O)N(C(=O)OC(C)C)[C@H]1c1cccnc1OC(C)C [Example I-309]	–	–	–	–	1000 to 10000	1000 to 10000	+++ (≥350)	100 to 200	–	–	–
COc1ccc(C(C)(C)C)cc1CN[C@H]1[C@H](C(C)(C)C)[C@@H](C(=O)O)N(C(=O)C(C)Oc2cccc(Cl)c2)[C@H]1c1ccccc1 (stereo partly shown) [II-330]	1000 to 10000	< 1000	–	–	–	–	–	–	> 200	+++ (≥350)	–
COc1ccc(C(C)(C)C)cc1CN[C@H]1[C@H](C(C)(C)C)[C@@H](C(=O)O)N(C(=O)C(OC)c2cccc(Cl)c2)[C@H]1c1ccccc1 (single isomer, unassigned) [II-271]	–	–	–	–	1000 to 10000	< 1000	+++ (≥350)	–	–	–	+++ (≥200)
COc1ncc(C(C)C)cc1CN[C@H]1[C@H](C(C)(C)OC)[C@@H](C(=O)O)N(C(=O)C2CCCCC2)[C@H]1c1ccccc1 [II-254]	–	–	–	–	1000 to 10000	1000 to 10000	+++ (≥350)	> 200	–	–	–
COc1ccc(C(C)(C)C)cc1CN[C@H]1[C@H](C(C)(C)C)[C@@H](C(=O)O)N(C(=O)c2cc(C#N)ccc2OC)[C@H]1c1ccccc1 [Example I-90]	1000 to 10000	1000 to 10000	+++ (≥350)	100 to 200	–	–	–	–	–	–	–
COc1ccc(Cc2ccccc2)cc1CN[C@H]1[C@H](C(C)(C)C)[C@@H](C(=O)O)N(C(=O)C2CCCCC2)[C@H]1c1ccccc1 [II-191]	–	–	–	–	1000 to 10000	< 1000	+++ (≥350)	> 200	–	–	–
